Assay results from PMC6472001, “Phenolic Compounds from Humulus lupulus as Natural Antimicrobial Products: New Weapons in the Fight against Methicillin Resistant Staphylococcus aureus, Leishmania mexicana and Trypanosoma brucei Strains” (Molecules, 2019).
Where two headings read alike, the source gives them in different places.

Key:
S. aureus T28.1 (MRSA) [1] = assay: Synergies by checkerboard method; format: cell-based, Staphylococcus aureus
Method: Checkerboard method was used to assess the potential co-action of xanthohumol, desmethylxanthohumol and lupulone between them or with some antibiotics. Antibiotics were previously selected on the basis of a first screening using E-tests (BioMérieux®, France). […] Each test was performed on a 96-well microplate using an 8-by-8 well configuration. […] Wells were filled with 100 µL of MH medium, 10 µL of each compound (DMSO for products and water for antibiotics) and 80 µL of a 10^5 CFU/mL bacterial suspension with appropriate solvent controls. […] The MIC of each product alone was checked at each test. Microplates were incubated overnight at 60 rpm and 37 °C.
After visual analysis, the combination with the highest activity was determined by the calculation of the fractional inhibitory concentration (FIC) index, interpreted as synergistic (FIC < 0.5), additive (0.5 ≤ FIC ≤ 1), indifferent (1 < FIC ≤ 4) or antagonist (FIC > 4).
FIC index=MIC A with B/MIC A alone+ MIC B with A/MIC B alone

[2] = test system: J774 cells (monocyte macrophage); assay: Cytotoxicity / antiproliferative effect; format: cell-based, mouse
Method: (§1) Several human cell lines were used for the cytotoxic bioassays: non-cancer lung fibroblasts (WI-38), hepatocellular carcinoma (Hep-G2), osteosarcoma (MG-63) and the mouse monocyte macrophage J774. Cells were seeded into wells of a 96-well microplate in a Gibco™ Dulbecco’s modified eagles medium (DMEM), except for MG-63 which were cultivated in a minimum essential medium (MEM) (ThermoFisher Scientific, Illkirch-Graffenstaden, France). Both media were enriched with 10% FBS (ThermoFisher Scientific, France) and some antibiotics (mixture penicillin/streptomycin 100 UI/mL, Sigma Aldrich). After one or two days at 37 °C (5% of CO2), wells were emptied by suction. Cells were then treated with hops compounds (xanthohumol, desmethylxanthohumol, humulone, lupulone) in DMSO at 0.2% in the culture medium, to obtain a final volume of 100 µL in wells (negative control: 0.2% DMSO). Camptothecin was used as a positive control. After 48 to 72 h exposure, culture medium was replaced by 10% of Alamar blue or 3-(4,5-dimethylthiazol-2-yl)-2,5-diphenyltetrazolium bromide (MTT) in the medium (ThermoFisher Scientific®, Illkirch, France) and plates were incubated the time necessary to the reaction. Results were measured respectively by fluorescence (excitation 530 nm and emission 590 nm) or by optical density at 550 nm. The IC50 of each product was determined using GraphPad Prism (version 5.01).

[3] = test system: Hep-G2 cells (hepatocellular carcinoma); assay: Cytotoxicity / antiproliferative effect; format: cell-based, human; settings: Homo sapiens
Method: as §1

[4] = test system: WI-38 cells (non-cancer lung fibroblasts); assay: Cytotoxicity / antiproliferative effect; format: cell-based, human
Method: as §1

[5] = test system: MG-63 cells (osteosarcoma); assay: cells; format: cell-based, human; settings: Homo sapiens, MG-63
Method: as §1

S. aureus T28.1 (MRSA) [6] = assay: Broth microdilution MIC; format: cell-based, Staphylococcus aureus
Method: (§2) The protocol employed was inspired by Abedini et al. with some modifications. Products were solubilized in DMSO and serially diluted two-fold in MH medium. A bacterial suspension at 10^5 CFU/mL was added to obtain a final volume of 200 µL. Final phenolic product concentrations in wells ranged from 625 to 2.4 µg/mL (exception for lupulone for which dilutions were continued until 0.3 µg/mL). […] Plates were incubated overnight with stirring (60 rpm) at 37 °C.
For the following experiments, the MRSA strain T28.1, isolated from a pathological sample of osteitis, was used. It was previously characterized by DNA biochips, which allowed highlighting some β-lactamases and the SCC-mec genes confirming the methicillin resistance. Moreover, genes for enzymes and proteins involved in the capsule biosynthesis (capH5, capJ5 and capK5) and several intracellular adhesion proteins implicated in biofilm formation (icaA, icaC and icaD) were present.

S. aureus T25.10 (MRSA) = assay: Broth microdilution MIC; format: cell-based, Staphylococcus aureus; settings: for MIC: S. aureus T25.10 (MRSA)
Method: as §2

S. aureus 08143 (MSSA) = assay: Broth microdilution MIC; format: cell-based, Staphylococcus aureus; settings: for MIC: S. aureus 08143 (MSSA)
Method: as §2

S. aureus T26A4 (MSSA) = assay: Broth microdilution MIC; format: cell-based, Staphylococcus aureus; settings: for MIC: S. aureus T26A4 (MSSA)
Method: as §2

Candida albicans 13203 = assay: First screening, agar dilution MIC; format: cell-based
[7] = test system: Candida albicans ATCC 10231; assay: First screening, agar dilution MIC; format: cell-based
[8] = test system: Trypanosoma brucei brucei (Tbb); assay: Antiparasitic activity, broth microdilution; format: cell-based
Method: (§3) Tbb were cultivated in HMI9 medium containing 10% heat-inactivated foetal bovine serum (FBS) (Sigma-Aldrich), […] L-cysteine and […] beta-mercaptoethanol at 37 °C (CO2 5%). Lmm (MHOM/BZ/84/BEL46) were cultivated in SDM-79 medium (Gibco) supplemented with 15% heat-inactivated FBS (Sigma-Aldrich) and 5 mg/L hemin at 28 °C (CO2 5%). Antiparasitic bioassays were performed as described by Bero et al.. Suramin (SUR) and pentamidine (PEN) were used as positive controls respectively. The hops compounds (xanthohumol, desmethylxanthohumol, humulone, lupulone) concentration that inhibits 50% of the cell viability (IC50) was determined using GraphPad Prism, version 5.01 (GraphPad Software, San Diego, CA, USA).

[9] = test system: Leishmania mexicana mexicana (Lmm); assay: Antiparasitic activity, broth microdilution; format: cell-based
Method: as §3

[10] = value in parentheses, read-out: IC50 (converted)
[11] = Staphylococcus aureus, S. aureus T28.1 (MRSA), read-out: MIC
[12] = Staphylococcus aureus, S. aureus T28.1 (MRSA), value in parentheses, read-out: MIC
[13] = Staphylococcus aureus, read-out: MIC
[14] = Staphylococcus aureus, value in parentheses, read-out: MIC
[15] = value in parentheses, read-out: MIC

With `CO[C@H]1/C=C/O[C@@]2(C)Oc3c(C)c(O)c4c(O)c(c(/C=N/N5CCN(C)CC5)c(O)c4c3C2=O)NC(=O)/C(C)=C\C=C\[C@H](C)[C@H](O)[C@@H](C)[C@@H](O)[C@@H](C)[C@H](OC(C)=O)[C@@H]1C` [rifampicin] the “times more active when combined” value (S. aureus T28.1 (MRSA) [1]; rifampicin combined with xanthohumol) was 8 times.

For `CC[C@@]1(O)C(=O)OCc2c1cc1n(c2=O)Cc2cc3ccccc3nc2-1` [CAMP, camptothecin], the IC50 ([2]; Mus musculus, read-out: IC50 ± SD) was 0.01 µg/mL, the IC50 ([2]; Mus musculus, value in parentheses, read-out: IC50 (converted)) was 0.03 µM and the IC50 ([3]; HepG2, read-out: IC50 ± SD) was 0.4 ± 0.2 µg/mL. It also gave an IC50 ([3]; HepG2, value in parentheses, read-out: IC50 (converted)) of 1.15 µM, an IC50 ([4]; Homo sapiens, read-out: IC50 ± SD) of 0.06 µg/mL and an IC50 ([4]; Homo sapiens, value in parentheses, read-out: IC50 (converted)) of 0.17 µM. The IC50 ([5]; read-out: IC50 ± SD) was 4.4 ± 1.5 µg/mL and the IC50 [5, 10] was 12.6 µM.

`COc1cc(O)c(CC=C(C)C)c2c1C(=O)CC(c1ccc(O)cc1)O2` (stereo not shown) [Isoxanthohumol, isoxanthohumol] gave an MIC (S. aureus T28.1 (MRSA) [6]; Staphylococcus aureus, strain MRSA T28.1, read-out: MIC) of 39 µg/mL.

In the case of `CC(C)=CCC1=C(O)C(O)(CC=C(C)C)C(=O)C(C(=O)C(C)C)=C1O` (stereo in doubt) [Cohumulone, cohumulone], the MIC (S. aureus T28.1 (MRSA) [6]; [11]) is reported as 156 µg/mL, the MIC (S. aureus T28.1 (MRSA) [6]; [12]) is reported as 448 µM and the MIC (S. aureus T25.10 (MRSA); [13]) is reported as 313 µg/mL. It also gave an MIC (S. aureus T25.10 (MRSA); [14]) of 899 µM, an MIC (S. aureus 08143 (MSSA); [13]) of 313 µg/mL and an MIC (S. aureus 08143 (MSSA); [14]) of 899 µM. The MIC (S. aureus T26A4 (MSSA); [13]) was 313 µg/mL and the MIC (S. aureus T26A4 (MSSA); [14]) was 899 µM.

In the case of `Cc1onc(-c2ccccc2)c1C(=O)N[C@@H]1C(=O)N2[C@@H]1SC(C)(C)[C@@H]2C(=O)O` [OXA, oxacillin], the “Susceptibility to OXA” value (S. aureus T28.1 (MRSA) [6]; S. aureus T28.1) is reported as “R (R ≥ 4 µg/mL)”, the “Susceptibility to OXA” value (S. aureus T25.10 (MRSA); S. aureus T25.10) is reported as “R (R ≥ 4 µg/mL)” and the “Susceptibility to OXA” value (S. aureus 08143 (MSSA); S. aureus 08143) is reported as “S (S ≤ 2 µg/mL)”. For the same compound, the “Susceptibility to OXA” value (S. aureus T26A4 (MSSA); S. aureus T26A4) was “S (S ≤ 2 µg/mL)”, the “MIC for oxacillin in combination” value (S. aureus T28.1 (MRSA) [1]; in the presence of lupulone) was under 2 µg/mL and the “MIC for oxacillin in combination” value (S. aureus T28.1 (MRSA) [1]; in the presence of xanthohumol) was under 2 µg/mL.

For `CC(C)=CCC1=C(O)C(CC=C(C)C)(CC=C(C)C)C(=O)C(C(=O)C(C)C)=C1O` [Colupulone, colupulone], the MIC (S. aureus T28.1 (MRSA) [6]; [11]) was 39 µg/mL, the MIC (S. aureus T28.1 (MRSA) [6]; [12]) was 97.5 µM and the MIC (S. aureus T25.10 (MRSA); [13]) was 78 µg/mL. For the same compound, the MIC (S. aureus T25.10 (MRSA); [14]) was 195 µM, the MIC (S. aureus 08143 (MSSA); [13]) was 78 µg/mL and the MIC (S. aureus 08143 (MSSA); [14]) was 195 µM. For the same compound, the MIC (S. aureus T26A4 (MSSA); [13]) was 39 µg/mL and the MIC (S. aureus T26A4 (MSSA); [14]) was 97.5 µM.

For `C[C@@H](c1ncncc1F)[C@](O)(Cn1cncn1)c1ccc(F)cc1F` [VRC, Voriconazole], the “Susceptibility to VRC” value (Candida albicans 13203) was “R (R > 0.12)” and the “Susceptibility to VRC” value [7] was “S (Voriconazole (VRC) S ≤ 0.12)”.

humulone was tested, and the IC50 [8] was 10.9 ± 0.8 µg/mL, the IC50 [8, 10] was 30.1 µM and the IC50 [9] was 28.8 ± 1.5 µg/mL. For the same compound, the IC50 [9, 10] was 77.9 µM, the MIC (S. aureus T28.1 (MRSA) [6]; S. aureus T28.1 (MRSA)) was 78 µg/mL and the MIC (S. aureus T28.1 (MRSA) [6]; S. aureus T28.1 (MRSA), value in parentheses, read-out: MIC) was 215.5 µM. For the same compound, the “IC50 ± SD” value [2] was 11.5 ± 0.3 µg/mL, the IC50 [2, 10] was 31.7 µM and the “IC50 ± SD” value [4] was 10.5 ± 2.3 µg/mL. For the same compound, the IC50 [4, 10] was 29 µM, the MIC (S. aureus T25.10 (MRSA)) was 156 µg/mL and the MIC (S. aureus T25.10 (MRSA); [15]) was 430.9 µM. For the same compound, the MIC (S. aureus 08143 (MSSA)) was 156 µg/mL, the MIC (S. aureus 08143 (MSSA); [15]) was 430.9 µM and the MIC (S. aureus T26A4 (MSSA)) was 156 µg/mL. For the same compound, the MIC (S. aureus T26A4 (MSSA); [15]) was 430.9 µM.

With `OC(Cn1cncn1)(Cn1cncn1)c1ccc(F)cc1F` [FLC, Fluconazole] the “Susceptibility to FLC” value (Candida albicans 13203) was “R (R > 4)” and the “Susceptibility to FLC” value [7] was “S (Fluconazole (FLC) S ≤ 2)”.

In the case of `Cc1ccc(C(=O)Nc2ccc(S(=O)(=O)O)c3cc(S(=O)(=O)O)cc(S(=O)(=O)O)c23)cc1NC(=O)c1cccc(NC(=O)Nc2cccc(C(=O)Nc3cc(C(=O)Nc4ccc(S(=O)(=O)O)c5cc(S(=O)(=O)O)cc(S(=O)(=O)O)c45)ccc3C)c2)c1` [SUR, suramin], the IC50 ([8]; Trypanosoma brucei, read-out: IC50 (converted)) is reported as 0.05 µg/mL and the IC50 ([8]; Trypanosoma brucei, value in parentheses, read-out: IC50 (converted)) is reported as 0.038 µM.

`C[C@@H]1[C@H](O)[C@@H](C)/C=C/C=C/C=C/C=C/C=C/C=C/C=C/[C@H](O[C@@H]2O[C@H](C)[C@@H](O)[C@H](N)[C@@H]2O)C[C@@H]2O[C@](O)(C[C@@H](O)C[C@@H](O)[C@H](O)CC[C@@H](O)C[C@@H](O)CC(=O)O[C@H]1C)C[C@H](O)[C@H]2C(=O)O` [AMB, Amphotericin B] was tested, and the “Susceptibility to AMB” value (Candida albicans 13203) was “S (Amphotericin B (AMB) S ≤ 1)” and the “Susceptibility to AMB” value [7] was “S (Amphotericin B (AMB) S ≤ 1)”.

`N=C(N)c1ccc(OCCCCCOc2ccc(C(=N)N)cc2)cc1` [PEN, pentamidine] showed an IC50 ([9]; Leishmania mexicana, read-out: IC50 (converted)) of 0.07 µg/mL and an IC50 ([9]; Leishmania mexicana, value in parentheses, read-out: IC50 (converted)) of 0.21 µM.
